Assay results taken from patent US20240059703A1 (AMGEN INC., priority 2021, published 2024).

Target: KRAS G12C (Homo sapiens (Human), UniProt P01116, C118A/G12C)
Test: 2 h coupled exchange assay
Assay type: biochemical
Settings: Avg 2 h Coupled exchange IC50, 2 h compound pre-incubation, SOS-mediated nucleotide exchange
Description: The term “2 h coupled exchange assay” or “20 h coupled exchange assay” as used herein refers to the assay described in the Section entitled “BIOLOGICAL EVALUATION.”

Sequence of KRAS G12C (P01116 other isoform, or with tags, fused parts or gaps G12C/C118A): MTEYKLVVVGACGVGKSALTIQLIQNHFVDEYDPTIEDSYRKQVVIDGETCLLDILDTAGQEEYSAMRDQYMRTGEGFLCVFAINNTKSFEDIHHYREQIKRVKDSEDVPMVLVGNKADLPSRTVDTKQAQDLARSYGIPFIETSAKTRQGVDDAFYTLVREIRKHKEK

C=CC(=O)N1CC2(CCN(c3nc4c(c(-c5cc(Cl)cc6cc[nH]c56)c3C#N)COC(C)(C)C4)C2)C1 [Example 12-7, 4-(5-chloro-1H-indol-7-yl)-7,7-dimethyl-2-(2-(2-propenoyl)-2,6-diazaspiro[3.4]octan-6-yl)-7,8-dihydro-5H-pyrano[4,3-b]pyridine-3-carbonitrile]
IC50: 0.435 µM

C=CC(=O)N1CC2(CCN(c3nc4c(c(-c5cc(Cl)cc6ccn(C)c56)c3C#N)COC(C)(C)C4)C2)C1 [Example 12-8, 4-(5-chloro-1-methyl-1H-indol-7-yl)-7,7-dimethyl-2-(2-(2-propenoyl)-2,6-diazaspiro[3.4]octan-6-yl)-7,8-dihydro-5H-pyrano[4,3-b]pyridine-3-carbonitrile]
IC50: 0.399 µM

C=CC(=O)N1CC2(CCN(c3nc4c(c(-c5c(Cl)ccc6cc[nH]c56)c3C#N)COC(C)(C)C4)C2)C1 [Example 12-13, 4-(6-chloro-1H-indol-7-yl)-7,7-dimethyl-2-(2-(2-propenoyl)-2,6-diazaspiro[3.4]octan-6-yl)-7,8-dihydro-5H-pyrano[4,3-b]pyridine-3-carbonitrile]
IC50: 0.252 µM

C=CC(=O)N1CC2(CCN(c3nc4c(c(-c5c(Cl)ccc6ccn(C)c56)c3C#N)COC(C)(C)C4)C2)C1 [Example 12-14, 4-(6-chloro-1-methyl-1H-indol-7-yl)-7,7-dimethyl-2-(2-(2-propenoyl)-2,6-diazaspiro[3.4]octan-6-yl)-7,8-dihydro-5H-pyrano[4,3-b]pyridine-3-carbonitrile]
IC50: 0.246 µM

C=CC(=O)N1CC2(CCN(c3nc4c(c(-c5c(F)ccc6cc[nH]c56)c3C#N)C[C@H]3C[C@@H]4C3(C)C)C2)C1 [Example 12-15, (1R,9R)-6-(6-fluoro-1H-indol-7-yl)-10,10-dimethyl-4-(2-(2-propenoyl)-2,6-diazaspiro[3.4]octan-6-yl)-3-azatricyclo[7.1.1.0^2,7] undeca-2,4,6-triene-5-carbonitrile]
IC50: 0.464 µM

C=CC(=O)N1CC2(CCN(c3nc4c(c(-c5c(Cl)ccc6[nH]ccc56)c3C#N)COC(C)(C)C4)C2)C1 [Example 12-16, 4-(5-chloro-1H-indol-4-yl)-7,7-dimethyl-2-(2-(2-propenoyl)-2,6-diazaspiro[3.4]octan-6-yl)-7,8-dihydro-5H-pyrano[4,3-b]pyridine-3-carbonitrile]
IC50: 0.242 µM

C=CC(=O)N1CC2(CCN(c3nc4c(c(-c5cccc6cc(N)ncc56)c3C#N)COC(C)(C)C4)C2)C1 [Example 12-17, 4-(3-amino-8-isoquinolinyl)-7,7-dimethyl-2-(2-(2-propenoyl)-2,6-diazaspiro[3.4]octan-6-yl)-7,8-dihydro-5H-pyrano[4,3-b]pyridine-3-carbonitrile]
IC50: 0.132 µM

C=CC(=O)N1CC2(CCN(c3nc4c(c(-c5c(Cl)c(C)cc6[nH]ncc56)c3C#N)C[C@H]3C[C@@H]4C3(C)C)C2)C1 [Example 12-18, (1R,9R)-6-(5-chloro-6-methyl-1H-indazol-4-yl)-10,10-dimethyl-4-(2-(2-propenoyl)-2,6-diazaspiro[3.4]octan-6-yl)-3-azatricyclo[7.1.1.0^2,7] undeca-2,4,6-triene-5-carbonitrile]
IC50: 0.988 µM

C=CC(=O)N1CC2(CCN(c3nc4c(c(-c5cccc6snnc56)c3C#N)COC(C)(C)C4)C2)C1 [Example 12-21, 4-(1,2,3-benzothiadiazol-4-yl)-7,7-dimethyl-2-(2-(2-propenoyl)-2,6-diazaspiro[3.4]octan-6-yl)-7,8-dihydro-5H-pyrano[4,3-b]pyridine-3-carbonitrile]
IC50: 0.601 µM

C=CC(=O)N1CC2(CCN(c3nc4c(c(-c5c(C)c(C)cc6cnn(C)c56)c3C)CCN(C(C)C)C4)C2)C1 [Example 12-25, 1-(6-(3-methyl-7-(2-propanyl)-4-(1,5,6-trimethyl-1H-indazol-7-yl)-5,6,7,8-tetrahydro-1,7-naphthyridin-2-yl)-2,6-diazaspiro[3.4]octan-2-yl)-2-propen-1-one]
IC50: 0.141 µM

C=CC(=O)N1CC2(CCN(c3nc4c(c(-c5c(C)ccc6nonc56)c3C#N)C[C@H]3C[C@@H]4C3(C)C)C2)C1 [Example 12-26, (1R,9R)-10,10-dimethyl-6-(5-methyl-2,1,3-benzoxadiazol-4-yl)-4-(2-(2-propenoyl)-2,6-diazaspiro[3.4]octan-6-yl)-3-azatricyclo[7.1.1.0^2,7] undeca-2,4,6-triene-5-carbonitrile]
IC50: 0.687 µM

C=CC(=O)N1CC2(CCN(c3nc4c(c(-c5cccc6cc(C(F)(F)F)[nH]c56)c3C#N)C[C@H]3C[C@@H]4C3(C)C)C2)C1 [Example 12-27, (1R,9R)-10,10-dimethyl-4-(2-(2-propenoyl)-2,6-diazaspiro[3.4]octan-6-yl)-6-(2-(trifluoromethyl)-1H-indol-7-yl)-3-azatricyclo[7.1.1.0^2,7] undeca-2,4,6-triene-5-carbonitrile]
IC50: 0.476 µM

C=CC(=O)N1CC2(CCN(c3nc4c(c(-c5cc(F)c(O)c6ccccc56)c3C#N)COC(C)(C)C4)C2)C1 [Example 12-28, 4-(3-fluoro-4-hydroxy-1-naphthalenyl)-7,7-dimethyl-2-(2-(2-propenoyl)-2,6-diazaspiro[3.4]octan-6-yl)-7,8-dihydro-5H-pyrano[4,3-b]pyridine-3-carbonitrile]
IC50: 0.263 µM

C=CC(=O)N1CC2(CCN(c3nc4c(c(-c5ncc(Cl)c6ccccc56)c3C#N)COC(C)(C)C4)C2)C1 [Example 12-30, 4-(4-chloro-1-isoquinolinyl)-7,7-dimethyl-2-(2-(2-propenoyl)-2,6-diazaspiro[3.4]octan-6-yl)-7,8-dihydro-5H-pyrano[4,3-b]pyridine-3-carbonitrile]
IC50: 0.438 µM

C=CC(=O)N1CC2(CCN(c3nc4c(c(-c5ccc(O)c6ccccc56)c3C#N)COC(C)(C)C4)C2)C1 [Example 12-31, 4-(4-hydroxy-1-naphthalenyl)-7,7-dimethyl-2-(2-(2-propenoyl)-2,6-diazaspiro[3.4]octan-6-yl)-7,8-dihydro-5H-pyrano[4,3-b]pyridine-3-carbonitrile]
IC50: 0.189 µM

C=CC(=O)N1CC2(CCN(c3nc4c(c(-c5cccc6ccc(O)cc56)c3C#N)COC(C)(C)C4)C2)C1 [Example 12-32, 4-(7-hydroxy-1-naphthalenyl)-7,7-dimethyl-2-(2-(2-propenoyl)-2,6-diazaspiro[3.4]octan-6-yl)-7,8-dihydro-5H-pyrano[4,3-b]pyridine-3-carbonitrile]
IC50: 0.515 µM

C=CC(=O)N1CC2(CCN(c3nc4c(c(-c5cccc6c(O)cccc56)c3C#N)COC(C)(C)C4)C2)C1 [Example 12-33, 4-(5-hydroxy-1-naphthalenyl)-7,7-dimethyl-2-(2-(2-propenoyl)-2,6-diazaspiro[3.4]octan-6-yl)-7,8-dihydro-5H-pyrano[4,3-b]pyridine-3-carbonitrile]
IC50: 0.527 µM

C=CC(=O)N1CC2(CCN(c3nc4c(c(-c5cccc6cnn(C)c56)c3C#N)C[C@H]3C[C@@H]4C3(C)C)C2)C1 [Example 12-40, (1R,9R)-10,10-dimethyl-6-(1-methyl-1H-indazol-7-yl)-4-(2-(2-propenoyl)-2,6-diazaspiro[3.4]octan-6-yl)-3-azatricyclo[7.1.1.0^2,7] undeca-2,4,6-triene-5-carbonitrile]
IC50: 0.344 µM

C=CC(=O)N1CC2(CCN(c3nc4c(c(-c5cccc6[nH]ccc56)c3C#N)C[C@H]3C[C@@H]4C3(C)C)C2)C1 [Example 12-42, (1R,9R)-6-(1H-indol-4-yl)-10,10-dimethyl-4-(2-(2-propenoyl)-2,6-diazaspiro[3.4]octan-6-yl)-3-azatricyclo[7.1.1.0^2,7] undeca-2,4,6-triene-5-carbonitrile]
IC50: 0.878 µM
